Values quoted from earlier work, collected in patent publication US20050070514A1, “Therapies for treating respiratory diseases” (priority 2001, published 2005).

Conditions: developed as an antidepressant

COc1ccc(C2CNC(=O)C2)cc1OC1CCCC1 (stereo not shown) [rolipram]
side effects in clinical studies: has psychotropic activity and produces gastrointestinal effects, e.g., pyrosis, nausea and emesis
